Data published in PubChem BioAssay AID1963972 (Molecular Pharmacology Branch, DTP, NCI, 2024).
pIC50: −log10 of the molar value.

Tested on: 945468-187-T-J2-PDC spheroids viability
Test: Anticancer human tumor 945468-187-T-J2-PDC patient-derived rectal carcinoma cell line growth inhibition [PI3K]
Details: spheroids with HUVEC and MSC; for pIC50: curve of first compound; for viability, T/C: stronger effect = lower value
Summary of the method: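 High-throughput combination screen: PI3K inhibitors crossed with targeted small molecules on complex spheroids of tumor cells, HUVEC and MSCs at 37 degrees C, 5% CO2. Top concentration was at or near clinical Cmax (otherwise 10 microM), with half-log decrements.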
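Also: spheroids exposed to compounds for seven days before reading.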

CC1(C)CCC(Nc2ncc(C(F)(F)F)c(-c3c[nH]c4c(P(C)(C)=O)c(C#N)ccc34)n2)CN1 (centres undefined) + CC(Nc1ccc2c(c1)OCCn1cc(N3C(=O)OCC3C(F)F)nc1-2)C(N)=O
pIC50 (second compound 0.00316 µM): 6.10
pIC50 (second compound 0.01 µM): 5.88
pIC50 (second compound 0.0316 µM): 5.68
pIC50 (second compound 0.1 µM): 5.97
pIC50 (second compound 0.316 µM): 6.05
pIC50 (second compound 1 µM): 5.37
viability, T/C (second compound 0.00316 µM, first compound 0.0316 µM): 96%
viability, T/C (second compound 0.00316 µM, first compound 0.1 µM): 115%
viability, T/C (second compound 0.00316 µM, first compound 0.316 µM): 71.8%
viability, T/C (second compound 0.00316 µM, first compound 1 µM): 50.2%
viability, T/C (second compound 0.00316 µM, first compound 3.16 µM): 34.2%
viability, T/C (second compound 0.00316 µM, first compound 10 µM): 49.6%
viability, T/C (second compound 0.01 µM, first compound 0.0316 µM): 91.6%
viability, T/C (second compound 0.01 µM, first compound 0.1 µM): 92.7%
viability, T/C (second compound 0.01 µM, first compound 0.316 µM): 88.8%
viability, T/C (second compound 0.01 µM, first compound 1 µM): 52.5%
viability, T/C (second compound 0.01 µM, first compound 3.16 µM): 40.5%
viability, T/C (second compound 0.01 µM, first compound 10 µM): 42.7%
viability, T/C (second compound 0.0316 µM, first compound 0.0316 µM): 82.2%
viability, T/C (second compound 0.0316 µM, first compound 0.1 µM): 98.3%
viability, T/C (second compound 0.0316 µM, first compound 0.316 µM): 61.1%
viability, T/C (second compound 0.0316 µM, first compound 1 µM): 64.3%
viability, T/C (second compound 0.0316 µM, first compound 3.16 µM): 42.9%
viability, T/C (second compound 0.0316 µM, first compound 10 µM): 43.8%
viability, T/C (second compound 0.1 µM, first compound 0.0316 µM): 105%
viability, T/C (second compound 0.1 µM, first compound 0.1 µM): 91%
viability, T/C (second compound 0.1 µM, first compound 0.316 µM): 81%
viability, T/C (second compound 0.1 µM, first compound 1 µM): 48.5%
viability, T/C (second compound 0.1 µM, first compound 3.16 µM): 41.8%
viability, T/C (second compound 0.1 µM, first compound 10 µM): 51.4%
viability, T/C (second compound 0.316 µM, first compound 0.0316 µM): 77.5%
viability, T/C (second compound 0.316 µM, first compound 0.1 µM): 103%
viability, T/C (second compound 0.316 µM, first compound 0.316 µM): 89.3%
viability, T/C (second compound 0.316 µM, first compound 1 µM): 45.8%
viability, T/C (second compound 0.316 µM, first compound 3.16 µM): 39.8%
viability, T/C (second compound 0.316 µM, first compound 10 µM): 31.6%
viability, T/C (second compound 1 µM, first compound 0.0316 µM): 85.3%
viability, T/C (second compound 1 µM, first compound 0.1 µM): 76.3%
viability, T/C (second compound 1 µM, first compound 0.316 µM): 67.3%
viability, T/C (second compound 1 µM, first compound 1 µM): 65.7%
viability, T/C (second compound 1 µM, first compound 3.16 µM): 54.6%
viability, T/C (second compound 1 µM, first compound 10 µM): 40.1%

Cn1cnc2c(F)c(Nc3ccc(Br)cc3Cl)c(C(=O)NOCCO)cc21 + CC(Nc1ncnc2nc[nH]c12)c1cc2cccc(Cl)c2c(=O)n1-c1ccccc1
pIC50 (second compound 0.0316 µM): < 5.52
pIC50 (second compound 0.1 µM): < 5.52
pIC50 (second compound 0.316 µM): < 5.52
pIC50 (second compound 1 µM): < 5.52
pIC50 (second compound 3.16 µM): < 5.52
pIC50 (second compound 10 µM): < 5.52
viability, T/C (second compound 0.0316 µM, first compound 0.00949 µM): 100%
viability, T/C (second compound 0.0316 µM, first compound 0.03 µM): 103%
viability, T/C (second compound 0.0316 µM, first compound 0.0949 µM): 84.1%
viability, T/C (second compound 0.0316 µM, first compound 0.3 µM): 92.8%
viability, T/C (second compound 0.0316 µM, first compound 0.949 µM): 92%
viability, T/C (second compound 0.0316 µM, first compound 3 µM): 73.7%
viability, T/C (second compound 0.1 µM, first compound 0.00949 µM): 99.3%
viability, T/C (second compound 0.1 µM, first compound 0.03 µM): 82.1%
viability, T/C (second compound 0.1 µM, first compound 0.0949 µM): 85.1%
viability, T/C (second compound 0.1 µM, first compound 0.3 µM): 93%
viability, T/C (second compound 0.1 µM, first compound 0.949 µM): 83.1%
viability, T/C (second compound 0.1 µM, first compound 3 µM): 74%
viability, T/C (second compound 0.316 µM, first compound 0.00949 µM): 111%
viability, T/C (second compound 0.316 µM, first compound 0.03 µM): 90.8%
viability, T/C (second compound 0.316 µM, first compound 0.0949 µM): 92.4%
viability, T/C (second compound 0.316 µM, first compound 0.3 µM): 91.8%
viability, T/C (second compound 0.316 µM, first compound 0.949 µM): 81.5%
viability, T/C (second compound 0.316 µM, first compound 3 µM): 80.3%
viability, T/C (second compound 1 µM, first compound 0.00949 µM): 122%
viability, T/C (second compound 1 µM, first compound 0.03 µM): 106%
viability, T/C (second compound 1 µM, first compound 0.0949 µM): 79.7%
viability, T/C (second compound 1 µM, first compound 0.3 µM): 88.3%
viability, T/C (second compound 1 µM, first compound 0.949 µM): 81.8%
viability, T/C (second compound 1 µM, first compound 3 µM): 82.7%
viability, T/C (second compound 3.16 µM, first compound 0.00949 µM): 81.6%
viability, T/C (second compound 3.16 µM, first compound 0.03 µM): 94.3%
viability, T/C (second compound 3.16 µM, first compound 0.0949 µM): 104%
viability, T/C (second compound 3.16 µM, first compound 0.3 µM): 107%
viability, T/C (second compound 3.16 µM, first compound 0.949 µM): 81.7%
viability, T/C (second compound 3.16 µM, first compound 3 µM): 79.9%
viability, T/C (second compound 10 µM, first compound 0.00949 µM): 92.7%
viability, T/C (second compound 10 µM, first compound 0.03 µM): 94.1%
viability, T/C (second compound 10 µM, first compound 0.0949 µM): 97.9%
viability, T/C (second compound 10 µM, first compound 0.3 µM): 91.5%
viability, T/C (second compound 10 µM, first compound 0.949 µM): 83.8%
viability, T/C (second compound 10 µM, first compound 3 µM): 72%
